The results in this text go back to patent US20050101595A1, “N-containing cycloalkyl-substituted amino-thiazole derivatives and pharmaceutical compositions for inhibiting cell proliferation and methods for their use” (PFIZER INC., priority 2003, published 2005).

SMILES strings stand for the structures. Where a name gives a salt, the structure may show the parent alone. Read-outs that look alike come from different tables or passages of the source.

Series [1] concerns the target CDK2/Cyclin A (Homo sapiens, UniProt P24941). Description: Inhibition of CDK2/Cyclin A Retinoblastoma Kinase Activity. The following applies: for Ki: apparent Ki, CDK2/proteolyzed cyclin A, Rb fragment substrate, 25 μM ATP. Format: biochemical. An outline of the steps:
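CDK2 (10 or 19 nM), insect-cell expressed, gel-filtration purified with truncated cyclin A; Rb fragment substrate; 25 μM ATP; 10 mM HEPES pH 7.4, 10 mM MgCl2; 30° C, 60 or 75 min; EDTA stop; phosphocellulose/nitrocellulose capture, phosphorimager. % inhibition vs DMSO control, no-enzyme background subtracted.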

The target in series [2] is human CDK4 and genetically truncated (1-264) cyclin D3 (Homo sapiens, UniProt P11802). The experiment in a line: Inhibition of CDK4/Cyclin D Retinoblastoma Kinase Activity. Format: biochemical. The following applies: for Ki: apparent Ki, CDK4/truncated cyclin D3, Rb fragment substrate, 25 μM ATP. An outline of the steps: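 The enzyme complex (5 nM), expressed in co-infected insect cells, was incubated with recombinant Rb fragment, 25 μM radiolabelled ATP and 2% DMSO at 30 °C. Reactions were stopped with EDTA after 20 minutes, or 60 minutes for tight-binding inhibitors. Apparent Ki values came from competitive inhibition fits.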

Series [3] has as its system HCT-116 cell line. Description: Inhibition of cell growth, tetrazolium salt (MTT) assay. Format: cell-based. The following applies: for IC50: Homo sapiens, HCT-116, 120 h, MTT, three to five days, read-out: HCT-116 IC50. An outline of the steps: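 McCoy's 5A cultures; 4 h pre-incubation; compound dilutions in 0.5% v/v DMSO; 3–5 d, 37° C, 5% CO2; MTT 0.2 mg/mL final, 4 h; formazan dissolved in DMSO, A540; vs 0.5% DMSO vehicle.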

Chain of human CDK4 and genetically truncated (1-264) cyclin D3 (P11802 whole entry, the tested form may be a part): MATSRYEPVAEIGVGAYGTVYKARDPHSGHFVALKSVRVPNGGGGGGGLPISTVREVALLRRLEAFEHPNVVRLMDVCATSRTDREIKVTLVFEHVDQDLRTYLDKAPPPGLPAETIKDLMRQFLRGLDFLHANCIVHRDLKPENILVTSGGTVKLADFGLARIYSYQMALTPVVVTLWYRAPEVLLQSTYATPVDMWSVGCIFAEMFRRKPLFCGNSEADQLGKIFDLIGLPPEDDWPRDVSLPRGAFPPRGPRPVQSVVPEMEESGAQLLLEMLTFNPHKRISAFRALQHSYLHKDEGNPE
Chain of human CDK4 and genetically truncated (1-264) cyclin D3 (P30281 1-264 partner): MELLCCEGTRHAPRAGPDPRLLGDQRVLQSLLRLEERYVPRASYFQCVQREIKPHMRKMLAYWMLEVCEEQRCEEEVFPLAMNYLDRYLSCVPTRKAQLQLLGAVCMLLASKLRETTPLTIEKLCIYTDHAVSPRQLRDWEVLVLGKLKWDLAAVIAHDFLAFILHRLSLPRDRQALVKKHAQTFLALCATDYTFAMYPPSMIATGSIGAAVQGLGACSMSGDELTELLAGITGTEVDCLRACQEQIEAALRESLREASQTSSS

With `Nc1nc(NC2CCN(S(=O)(=O)c3ccc(N4CCC[C@H](CO)C4)nc3)CC2)sc1C(=O)c1c(F)cccc1F` [Example G18], the melting point (usually the temperature of the solid-liquid transition) is > 149 °C (dec.). The Ki in series [1] amounted to 0.39 nM. Further, the Ki in series [2] stood at 0.58 nM. For the same compound, in series [3] (first HCT-116 column (c4)), the IC50 (as a rule, the midpoint of a concentration-inhibition curve) turned out to be 120 nM. In series [3] (second HCT-116 column (c5)), the IC50 came to 600 nM.
As to `CN(C)CCCc1ccc(S(=O)(=O)N2CCC(Nc3nc(N)c(C(=O)c4c(F)cccc4F)s3)CC2)cc1` (as salt: salt) [Example I10, 1-(4-Amino-2-{1-[4-(3-dimethylamino-propyl)-benzenesulfonyl]-piperidin-4-ylamino}-thiazol-5-yl)-1-(2,6-difluoro-phenyl)-methanone D-Glucuronic Acid Salt], the melting point was in the range of 117 to 120 °C.
For the compound `CCN1CCN(CCCS(=O)(=O)N2CCC(Nc3nc(N)c(C(=O)c4c(F)cccc4F)s3)CC2)CC1` [Example K15, 1-(4-Amino-2-{1-[3-(4-ethylpiperazin-1-yl)propane-1-sulfonyl]-piperidin-4-ylamino}-thiazol-5-yl)-1-(2,6-difluoro-phenyl)-methanone.], the Ki in series [1] was determined as 8.7 nM; in series [2], 2.5 nM. Moreover, the IC50 in series [3] (first HCT-116 column (c4)) was 1300 nM; in series [3] (second HCT-116 column (c5)), 5000 nM.
In the case of `Cc1ccc(C)c(NC(=O)N2CCC(Nc3nc(N)c(C(=O)c4c(F)cccc4F)s3)CC2)c1` [Example O42], the “CDK2 % Inhibition At 0.03 μM” value in series [1] (0.03 μM compound, Table 2) amounted to 35%. In series [2] (0.03 μM compound, Table 2), the “CDK4 % Inhibition at 0.03 μM” value was found to be 10%. For the same compound, the “HCT-116 % Inhibition at 0.25 μM” value in series [3] (0.25 μM compound, HCT-116, Table 2) stood at 26%.
